Source: patent publication US9101559B2, “Leukemic cell CNS infiltration controlled by notch-induced chemotaxis” (New York University, priority 2009, dated 2015)

Tests used:
activated N1-IC protein = assay: Western blot of activated N1-IC protein in CEM cells after γ-secretase inhibitor treatment; type: cell-based, human; settings: CEM cells (T-ALL cell line), 1 nM, three days
Procedure: (§1) FIGS. 9A-9D show γ-secretase-inhibitor mediated suppression of CCR7 expression. CEM cells (T-ALL cell line) were treated with either Compound E (Comp E) (1 nM) or DBZ (1 nM) for three days. FIG. 9A is a panel of western blots showing the disappearance of the activated N1-IC protein in CEM cells following γ-secretase inhibitor (GSI) treatment. β-actin immunoreactivity is shown as a loading control. […] Error bars define standard deviation from mean.

Dtx1 = assay: Transcription of Notch target gene Dtx1 in CEM cells after GSI treatment; type: cell-based, human; settings: CEM cells (T-ALL cell line), 1 nM, three days
Procedure: as §1
(§2) RNA was isolated using RNeasy Plus Mini Kit (Qiagen, Valencia, Calif.) columns and used to synthesize cDNA with the SuperScript First-Strand Kit (Invitrogen, Carlsbad, Calif.). Real time PCR was performed using iQ SYBR Green Supermix and an iCycler (Bio-Rad, Hercules, Calif.). Relative expression was determined from cycle threshold (CT) values and was normalized using β-actin as an internal control.

Hes1 = assay: Transcription of Notch target gene Hes1 in CEM cells after GSI treatment; type: cell-based, human; settings: CEM cells (T-ALL cell line), 1 nM, three days
Procedure: as §1, §2

human CCR7 = assay: CCR7 expression in T-ALL cell lines after GSI treatment; type: cell-based; settings: for transcription of human CCR7: CEM cells (T-ALL cell line), 1 nM, three days; for CCR7 mRNA and protein expression: T-ALL cell lines, addition of γ-secretase inhibitors
Procedure: as §1, §2
To further correlate Notch 1 activation and CCR7 expression, T-ALL cell lines harboring Notch 1 activating mutations and primary T-ALL samples were analyzed. Strikingly, surface CCR7 was expressed in 80% (4/5) of T-ALL lines (FIG. 8A) and in 73% (8/11) of peripheral blood from primary T-ALL samples (FIG. 8B; #114, #358, and #479). […] To obtain a preliminary estimate of the importance of CCR7 expression in CNS infiltration, two human T-ALL lines were selected (FIG. 8A), one expressing CCR7 (CEM/CCR7^pos) and one deficient in CCR7 expression (DND41/CCR7^neg). Both cell lines were infected using a luciferase-expressing lentivirus. To study disease induction and progression, the cells were transplanted into lymphoid Rag2−/− γc−/− host animals. Transplantation of an identical number of leukemia cells led to distinct survival patterns as host animals which received CEM/CCR7^pos cells succumbed to the leukemic disease earlier that the ones receiving the DND41/CCR7^neg cells (FIG. 3A). Using live animal bioluminescent imaging, a higher tumor load in mice that received the […] cell line was observed (FIG. 3B). Most importantly, the brain and spinal cord of CEM/CCR7^pos-transplanted hosts (but not the DND41/CCR7^neg) were infiltrated by T-ALL cells (FIG. 3C). Further histopathological analysis confirmed the localization of the infiltrating cells in leptomeningeal spaces (FIG. 3D).

Structure (SMILES)	activated N1-IC protein (western blot) (activated N1-IC protein)	transcription of Dtx1 (Dtx1)	transcription of Hes1 (Hes1)	transcription of human CCR7 (human CCR7)	CCR7 mRNA and protein expression (human CCR7)
C[C@H](NC(=O)Cc1cc(F)cc(F)c1)C(=O)N[C@H]1N=C(c2ccccc2)c2ccccc2N(C)C1=O [Compound E]	disappearance	efficiently suppressed	efficiently suppressed	suppressed	significant down-regulation
C[C@H](NC(=O)Cc1cc(F)cc(F)c1)C(=O)N[C@@H]1C(=O)N(C)c2ccccc2-c2ccccc21 [DBZ]	disappearance	efficiently suppressed	efficiently suppressed	suppressed	significant down-regulation
